# What was measured:
# [1] = molecular target: T1, HDAC6 (Homo sapiens, UniProt Q9UBN7); assay: HDAC enzymatic assay, HDAC6; format: biochemical
# T1 sequence (Q9UBN7 1-1215): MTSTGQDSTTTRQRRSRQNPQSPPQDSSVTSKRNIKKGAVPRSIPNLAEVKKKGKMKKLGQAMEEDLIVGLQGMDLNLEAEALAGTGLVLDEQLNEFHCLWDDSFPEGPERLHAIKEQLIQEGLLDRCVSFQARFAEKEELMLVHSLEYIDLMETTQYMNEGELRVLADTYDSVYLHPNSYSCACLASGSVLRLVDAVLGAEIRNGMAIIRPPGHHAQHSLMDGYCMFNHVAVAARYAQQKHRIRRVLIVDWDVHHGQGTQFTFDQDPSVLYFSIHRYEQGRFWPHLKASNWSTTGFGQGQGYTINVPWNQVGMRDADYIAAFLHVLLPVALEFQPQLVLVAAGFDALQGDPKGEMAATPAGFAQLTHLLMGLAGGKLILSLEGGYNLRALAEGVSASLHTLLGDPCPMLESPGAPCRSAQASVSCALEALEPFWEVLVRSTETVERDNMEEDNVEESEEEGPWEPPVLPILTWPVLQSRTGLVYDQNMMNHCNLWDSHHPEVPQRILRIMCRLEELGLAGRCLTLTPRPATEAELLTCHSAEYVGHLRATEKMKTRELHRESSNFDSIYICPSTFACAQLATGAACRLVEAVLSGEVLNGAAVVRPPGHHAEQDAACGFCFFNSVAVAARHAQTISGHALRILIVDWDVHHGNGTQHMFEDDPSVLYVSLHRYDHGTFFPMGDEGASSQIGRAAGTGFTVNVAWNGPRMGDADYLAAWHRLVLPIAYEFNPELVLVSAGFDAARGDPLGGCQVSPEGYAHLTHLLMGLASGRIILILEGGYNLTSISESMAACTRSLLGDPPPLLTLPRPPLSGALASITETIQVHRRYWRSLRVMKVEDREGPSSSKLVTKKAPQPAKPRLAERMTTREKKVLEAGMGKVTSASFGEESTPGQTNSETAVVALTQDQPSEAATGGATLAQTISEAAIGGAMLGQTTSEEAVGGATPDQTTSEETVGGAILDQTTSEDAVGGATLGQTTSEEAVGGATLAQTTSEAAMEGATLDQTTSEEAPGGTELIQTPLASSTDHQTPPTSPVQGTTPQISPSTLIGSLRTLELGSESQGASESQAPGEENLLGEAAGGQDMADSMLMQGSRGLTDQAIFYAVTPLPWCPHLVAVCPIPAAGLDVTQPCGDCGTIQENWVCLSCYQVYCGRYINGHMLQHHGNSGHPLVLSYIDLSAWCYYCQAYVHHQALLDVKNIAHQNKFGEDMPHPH
# Method: (§1) Each compound was dissolved in DMSO, and progressively diluted solutions were used for testing. […] Upon its deacetylation, the fluorophore was released given rise to fluorescence emission which was detected by a fluorimeter, and the IC50 values of the compounds were determined by analyzing dose-response inhibition curves.
# [2] = system: eleven HDAC isolated human isoforms; assay: HDAC profiling, whole isoform panel; format: biochemical
# Method: as §1
# [3] = system: α-tubulin acetylation in NCI-H460 cells; assay: Tubulin acetylation, Western Blot; settings: cytoplasmic extracts
# Method: (§4) The experiments were conducted using ECL Plus Western blotting detection reagents (from Amersham Biosciences) and the intensity of the bands were analyzed by using a computed phosphoimage analyzer (PhosphoImager; Molecular Dynamics, Sunnyvale, Calif., U.S.A.).
# [4] = system: HCT116 colon cancer cells; assay: Antitumour activity, HCT116 xenograft (Example 48); format: in vivo, CD1 nude mice; settings: 50 mg/10 ml/kg i.p., qd×5/w×3w
# Method: (§5) The tested derivatives were administered as a suspension in PBS/DMSO/Cremophor EL (Sigma): 85/10/5 (volume percentage). The antitumour activity was determined by measuring tumour diameters with a Vernier calliper according to the Formula TV=d^2×D/2
# (§6) where d and D are the shortest and longest diameters, respectively.
# (§7) When tumours reached a volume of about 1000 mm^3, mice were sacrificed by cervical dislocation. The efficacy of the drug was assessed as the tumour volume inhibition according to the Formula reported underneath:
# (§8) Body weight recording was carried out to evaluate body weight loss as calculated in the equation underneath:
# (§9) Wherein BW day x corresponds to the mean weight at day x of the experiment meanwhile BW day 1 corresponds to the mean weight at the first day of the experiment.
# [5] = system: NCI-H460 non-small cell lung carcinoma cells; assay: Cytotoxicity, sulphorodamine B, H460; settings: Homo sapiens, NCI-H460, read-out: H460 cell line IC50 (μM)
# Method: (§10) The plates were incubated for 24 h at 37° C., after which they were washed 3 times by removal of the supernatant and addition of PBS. The plates were then incubated for further 48 h at 37° C. 200 μl PBS and 50 μl of cold 80% TCA were added and the plates were incubated on ice for at least 1 h. TCA was removed and the plates were washed 3 times by immersion in distilled-water. They were then dried on paper at 40° C. for 5 min. 200 μl of 0.4% sulphorodamine B in 1% acetic acid were added. The plates were incubated at room temperature for further 30 min. Sulphorodamine B was removed, and the plates were washed 3 times by immersion in 1% acetic acid and were dried on paper and at 40° C. for 5 min. Then 200 μl Tris 10 mM were added. The plates were kept under magnetic stirring for 20 min. Cell survival was determined by means of optical density by a Multiskan spectrofluorimeter at 540 nm. The amount of cells killed was calculated as the percentage decrease in sulphorodamine B binding compared to control cultures.
# [6] = system: H929 multiple myeloma cells; assay: Antitumour activity, H929 xenograft (Example 48); format: in vivo, CD1 nude mice; settings: 50 mg/10 ml/kg i.p., qd×5/w×3w
# Method: as §5, §6, §7, §8, §9
# [7] = system: HCT116 colon cancer cells; assay: Cytotoxicity, sulphorodamine B, HCT116; settings: Homo sapiens, HCT-116, read-out: HCT116 cell line IC50 (μM)
# Method: as §10
# [8] = system: histone H4 acetylation in NCI-H460 cells; assay: Histone H4 acetylation, Western Blot
# Method: as §4
# [9] = system: MDA-MB436 breast tumour cells; assay: Cytotoxicity extended panel, MDA-MB436; format: cell-based; settings: Homo sapiens, MDA-MB-436, cell survival, 72 h, sulphorodamine B
# Method: (§2) Cells were seeded in 96-well tissue culture plates at approximately 10% confluence. They were allowed to attach and recover for at least 24 h. Compounds of the present invention were then added to each well at various concentrations in order to define cell survival inhibition IC50. The plates were incubated for 72 h at 37° C., after which time they were washed 3 times by removal of the supernatant. 200 μl of PBS and 50 μl of cold 80% TCA were added and the plates were incubated on ice for at least 1 h. TCA was removed and the plates were washed 3 times by immersion in distilled water. They were then dried on paper at 40° C. for 5 min. 200 μl of 0.4% sulphorodamine B in 1% acetic acid were added. The plates were incubated at room temperature for further 30 min. Sulphorodamine B was removed, and the plates were washed 3 times by immersion in 1% acetic acid and were dried on paper at 40° C. for 5 min. Then 200 μl Tris 10 mM were added. The plates were kept under magnetic stirring for 20 min. Cell survival was determined by means of optical density by a Multiskan spectrofluorimeter at 540 nm. The amount of cells killed was calculated as the percentage decrease in sulphorodamine B binding compared to control cultures. The IC50 values (reported in Table 5) were calculated with the “ALLFIT” program.
# [10] = system: MCF-7 breast tumour cells; assay: Cytotoxicity extended panel, MCF-7; format: cell-based; settings: Homo sapiens, MCF7, cell survival, 72 h, sulphorodamine B
# Method: as §2
# [11] = system: MV4-11 acute monocytic leukemia cells; assay: Cytotoxicity extended panel, MV4-11; format: cell-based; settings: Homo sapiens, suspension cells, 72 h
# Method: (§3) Cells were seeded in 96-well tissue culture plates at approximately 10% confluence. They were allowed to attach and recover for at least 24 h. Compounds of the present invention were then added to each well at various concentrations in order to define cell survival inhibition IC50. The plates were incubated for 72 h at 37° C., after which time they were washed 3 times by removal of the supernatant. 200 μl of PBS and 50 μl of cold 80% TCA were added and the plates were incubated on ice for at least 1 h. TCA was removed and the plates were washed 3 times by immersion in distilled water. They were then dried on paper at 40° C. for 5 min. 200 μl of 0.4% sulphorodamine B in 1% acetic acid were added. The plates were incubated at room temperature for further 30 min. Sulphorodamine B was removed, and the plates were washed 3 times by immersion in 1% acetic acid and were dried on paper at 40° C. for 5 min. Then 200 μl Tris 10 mM were added. The plates were kept under magnetic stirring for 20 min. Cell survival was determined by means of optical density by a Multiskan spectrofluorimeter at 540 nm. The amount of cells killed was calculated as the percentage decrease in sulphorodamine B binding compared to control cultures. The IC50 values (reported in Table 5) were calculated with the “ALLFIT” program. […]
# [12] = system: K562 chronic myeloid leukemia cells; assay: Cytotoxicity extended panel, K562; format: cell-based; settings: Homo sapiens, suspension cells, 72 h
# Method: as §3
# [13] = system: SKOV-3 ovarian tumour cells; assay: Cytotoxicity extended panel, SKOV-3; format: cell-based; settings: Homo sapiens, SK-OV-3, cell survival, 72 h, sulphorodamine B
# Method: as §2
# [14] = system: HUT78 T-Lymphoma cells; assay: Cytotoxicity extended panel, HUT78; format: cell-based; settings: Homo sapiens, suspension cells, 72 h
# Method: as §3
# [15] = system: MDA-MB231 breast tumour cells; assay: Cytotoxicity extended panel, MDA-MB231; format: cell-based; settings: Homo sapiens, MDA-MB-231, cell survival, 72 h, sulphorodamine B
# Method: as §2
# [16] = system: U937 leukemia cells; assay: Cytotoxicity extended panel, U937; format: cell-based; settings: Homo sapiens, U-937, suspension cells, 72 h
# Method: as §3
# [17] = system: HSC3 head and neck tumour cells; assay: Cytotoxicity extended panel, HSC3; format: cell-based; settings: Homo sapiens, HSC-3, cell survival, 72 h, sulphorodamine B
# Method: as §2
# [18] = system: A2780 ovarian tumour cells; assay: Cytotoxicity extended panel, A2780; format: cell-based; settings: Homo sapiens, cell survival, 72 h, sulphorodamine B
# Method: as §2
# [19] = system: NCI-H460 NSCLC; assay: Antitumour activity, NCI-H460 xenograft (Example 48); settings: 50 mg/10 ml/kg i.p., qd×5/w×3w
# Method: as §5, §6, §7, §8, §9
smiles,measurement,setting,value
"CC(C)(C)OC(=O)N[C@@H](CCCCCS)C(=O)NC1CCCC1 [((S)-1-cyclopentylcarbamoyl-6-mercapto-hexyl)-carbamic acid tert-butyl ester, reference compound]",activity on HDAC6 compared with the described compounds,[1],much lower activity on HDAC6 than most of the herein described compounds
same,HDAC isoform selectivity profile,[2],confirmed its HDAC6 selectivity profile
"CC(=O)SCCCCC[C@H](NC(=O)[C@@H]1CCCC(=O)N1)C(=O)Nc1ccccc1 [Example 14, Thioacetic acid S—{(S)-6-[((S)-6-oxo-piperidine-2-carbonyl)-amino]-6-phenylcarbamoyl-hexyl}ester]",hyper-acetylation of cytoplasmatic α-tubulin,[3],comparable to that observed with the reference compound SAHA
same,BWL %,[4],3%
same,TVI %,[4],44%
same,IC50,[5],< 0.5 µM
same,BWL %,[6],11%
same,TVI %,[6],30%
same,IC50,[7],< 0.5 µM
same,EC50,"[8]; Homo sapiens, NCI-H460, read-out: EC50 μM H4 acetylation",0.1 µM
same,concentration inducing H4 hyper-acetylation,"[8]; NCI-H460 cells, Western Blot, 'as low as'",100 nM
same,IC50,[9],0.18 µM
same,IC50,[10],0.19 µM
same,IC50,[11],0.19 µM
same,IC50,[12],0.19 µM
same,IC50,[13],0.38 µM
same,IC50,[14],0.48 µM
same,IC50,[15],0.23 µM
same,IC50,[16],0.049 µM
same,IC50,[17],0.77 µM
same,IC50,[18],0.062 µM
same,BWL %,[19],2%
same,TVI %,[19],36%
